# In article PMC11149917, “Translational and Therapeutic Evaluation of RAS-GTP Inhibition by RMC-6236 in RAS-Driven Cancers” (Cancer Discovery, 2024):
# Like-named read-outs stand apart in the source and are kept apart here.
# System: panel of 78 cancer cell lines
# Test: Cell panel 3D methylcellulose CellTiter-Glo proliferation
# Format: cell-based
# Conditions: Homo sapiens
# Experimental: A panel of 78 cancer cell lines harboring mutant and wild-type RAS was selected for screening at Crown Bioscience (Supplementary Table S2). The panel consisted of cell lines with any substitution at position 12 of KRAS, cell lines with any substitutions at position 61 of NRAS, and cell lines with a BRAF^V600E mutation. […] Cells were incubated for 120 hours prior to measurement of adenosine triphosphate (ATP) levels using the CellTiter-Glo Luminescent Cell Viability Assay (CTG; Promega, G7572), a method of determining the number of metabolically active cells based on quantitation of cellular ATP, according to the manufacturer's instructions. To measure induction of apoptosis, cells were incubated with RMC-6236 for 48 hours prior to measuring cleavage of a proluminescent caspase-3/7 DEVD-aminoluciferin substrate using the CaspaseGlo-3/7 Assay (Promega, G8092) according to the manufacturer’s instructions.
structure (smiles),measurement,setting,value
CCn1c(-c2cc(N3CCN(C)CC3)cnc2[C@H](C)OC)c2c3cc(ccc31)-c1csc(n1)C[C@H](NC(=O)[C@H]1C[C@@H]1C)C(=O)N1CCC[C@H](N1)C(=O)OCC(C)(C)C2 [RMC-6236],EC50,"NCI-H1299, NCIH1299, NRAS Q61K, Lung, read-out: Proliferation Inhibition (EC50)",26.3 nM
same,EC50,"NCI-H1373, NCIH1373, KRAS G12C, Lung, read-out: Proliferation Inhibition (EC50)",5.2 nM
same,EC50,"NCI-H1792, NCIH1792, KRAS G12C, Lung, read-out: Proliferation Inhibition (EC50)",7.4 nM
same,EC50,"NCI-H2009, NCIH2009, KRAS G12A, Lung, read-out: Proliferation Inhibition (EC50)",19.3 nM
same,EC50,"NCI-H2087, NCIH2087, NRAS Q61K, Lung, read-out: Proliferation Inhibition (EC50)",4 nM
same,EC50,"NCI-H2122, NCIH2122, KRAS G12C, Lung, read-out: Proliferation Inhibition (EC50)",6.7 nM
same,EC50,"NOZ, KRAS G12V, Liver/Bile duct, read-out: Proliferation Inhibition (EC50)",33.1 nM
same,EC50,"NRAS^Q61X cells, read-out: median EC50, cell growth inhibition",22 nM
same,EC50,"OVCAR-5, OVCAR5, KRAS G12V, Ovary, read-out: Proliferation Inhibition (EC50)",2 nM
same,EC50,"PANC-1, PANC1, KRAS G12D, Pancreas, read-out: Proliferation Inhibition (EC50)",1.4 nM
same,EC50,"PANC-03-27, PANC0327, KRAS G12V, Pancreas, read-out: Proliferation Inhibition (EC50)",1 nM
same,EC50,"PL45, PL45, KRAS G12D, Pancreas, read-out: Proliferation Inhibition (EC50)",86.5 nM
same,EC50,"Panc 05.04, PANC0504, KRAS G12D, Pancreas, read-out: Proliferation Inhibition (EC50)",6.1 nM
same,EC50,"Panc1005, PANC1005, KRAS G12D, Pancreas, read-out: Proliferation Inhibition (EC50)",27.1 nM
same,EC50,"RBE, KRAS G12V, Liver/Bile duct, read-out: Proliferation Inhibition (EC50)",5.8 nM
same,EC50,"RKO*, BRAF V600E, Intestine/Large/Colorectum, read-out: Proliferation Inhibition (EC50)",> 100 nM
same,EC50,"SHP77, SHP77, KRAS G12V, Lung, read-out: Proliferation Inhibition (EC50)",> 100 nM
same,EC50,"SK-CO-1, SKCO1, KRAS G12V, Intestine/Large/Colorectum, read-out: Proliferation Inhibition (EC50)",3 nM
same,EC50,"SK-LU-1, SKLU1, KRAS G12D, Lung, read-out: Proliferation Inhibition (EC50)",6 nM
same,EC50,"SK-MEL-2, SKMEL2, NRAS Q61R, Skin, read-out: Proliferation Inhibition (EC50)",38.8 nM
same,EC50,"SK-N-AS, SKNAS, NRAS Q61K, Brain and Nerves, read-out: Proliferation Inhibition (EC50)",8.3 nM
same,EC50,"SK-N-SH, SKNSH, NRAS Q61K, Brain and Nerves, read-out: Proliferation Inhibition (EC50)",> 100 nM
same,EC50,"SNU1, SNU1, KRAS G12D, Stomach, read-out: Proliferation Inhibition (EC50)",13 nM
same,EC50,"SNU719, NRAS Q61L, Stomach, read-out: Proliferation Inhibition (EC50)",32.2 nM
same,EC50,"SNU-387, SNU387, NRAS Q61K, Liver, read-out: Proliferation Inhibition (EC50)",9.2 nM
same,EC50,"SNU-601, SNU601, KRAS G12D, Stomach, read-out: Proliferation Inhibition (EC50)",26.2 nM
same,EC50,"SNUC2A, KRAS G12D, Intestine/Large/Colorectum, read-out: Proliferation Inhibition (EC50)",> 100 nM
same,EC50,"SU.86.86, SU8686, KRAS G12D, Pancreas, read-out: Proliferation Inhibition (EC50)",20.2 nM
same,EC50,"SW480, SW480, KRAS G12V, Intestine/Large/Colorectum, read-out: Proliferation Inhibition (EC50)",5.1 nM
same,EC50,"SW626, SW626, KRAS G12V, Ovary, read-out: Proliferation Inhibition (EC50)",3.8 nM
same,EC50,"SW756, SW756, KRAS G12C, Ovary, read-out: Proliferation Inhibition (EC50)",26.9 nM
same,EC50,"SW837, SW837, KRAS G12C, Intestine/Large/Colorectum, read-out: Proliferation Inhibition (EC50)",18.8 nM
same,EC50,"SW900, SW900, KRAS G12V, Lung, read-out: Proliferation Inhibition (EC50)",3.1 nM
same,EC50,"SW 1116, SW1116, KRAS G12A, Intestine/Large/Colorectum, read-out: Proliferation Inhibition (EC50)",70.9 nM
same,EC50,"SW1271, SW1271, NRAS Q61R, Lung, read-out: Proliferation Inhibition (EC50)",4.6 nM
same,EC50,"SW1463, SW1463, KRAS G12C, Intestine/Large/Colorectum, read-out: Proliferation Inhibition (EC50)",20.4 nM
same,EC50,"SW1573, SW1573, KRAS G12C, Lung, read-out: Proliferation Inhibition (EC50)",> 100 nM
same,EC50,"SW1990, SW1990, KRAS G12D, Pancreas, read-out: Proliferation Inhibition (EC50)",6.7 nM
same,EC50,"SW-403, SW403, KRAS G12V, Intestine/Large/Colorectum, read-out: Proliferation Inhibition (EC50)",3.5 nM
same,EC50,"SW-620, SW620, KRAS G12V, Intestine/Large/Colorectum, read-out: Proliferation Inhibition (EC50)",2.7 nM
same,EC50,"UMUC3, UMUC3, KRAS G12C, Bladder, read-out: Proliferation Inhibition (EC50)",2.6 nM
same,EC50,"YCC2, KRAS G12S, Stomach, read-out: Proliferation Inhibition (EC50)",22.9 nM
same,EC50,"all three BRAF^V600E mutant cells, read-out: resistance to growth inhibition",> 100 nM
